Data set [1] is described as follows: Spectroscopic properties of the target conjugates in PBS. It is filed as physicochemical. To be noted: for ε (molar absorption coefficient): at the absorption maximum. Here is the method: All starting materials were obtained from commercial suppliers and used without further purification. Analytical thin-layer chromatography (TLC) was performed on silica gel 60 F254 precoated aluminum TLC plates from Merck. Flash column chromatography was performed on Teledyne Isco CombiFlash® Rf+ automated flash chromatographer with silica gel (25-40 μm) from Zeochem. NMR spectra were recorded on a Varian Inova 500 MHz spectrometer. Chemical shifts (δ) are given in parts per million (ppm) using solvent signals or TMS as the reference. Coupling constants (J) are reported in Hertz (Hz). Analytical RP-HPLC-UV/Vis-MS measurements were employed using a Shimadzu LCMS-2020 instrument applying a Gemini C18 column (100×2.00 mm I.D.) in which the stationary phase is […] with a pore size of 110 Å. The chromatograms were detected by a UV-Vis diode array (190-800 nm) and an ESI-MS detector. The following linear gradient elution profile was applied, 0 min 0% B; 6.5 min 100% B; 7 min 0% B; 8 min. 0% B) with eluent A (2% HCOOH, 5% MeCN and 93% water) and B (2% HCOOH, 80% MeCN and 18% water) at a flow rate of 1.0 mL min-1 at 30° C. The samples were dissolved in MeCN—water mixtures. Spectroscopic measurements were performed on a Jasco FP 8300 spectrofluorometer. Quartz cuvettes with path length of 1 cm were used.
The spectroscopic properties of the target conjugates were determined in PBS. […] Compounds with Q=O have absorption bands in the green-yellow region while Q=CMe2 derivatives absorb in the red (up to 700 nm). All of the compounds have moderate to high absorption coefficients and significant fluorescence. The spectroscopic details can be found in Table 1. In the table, λmax means absorption maximum; λem means fluorescence emission maximum; s means molar absorption coefficient (at the absorption maximum).

The nature of data set [2]: Uncaging quantum yield determination relative to BODIPY reference. It is filed as physicochemical. To be noted: for ε × Φu, uncaging cross-section / quantum efficiency: at the wavelength in parentheses beside each value (538-660 nm); for Φu, uncaging quantum yield: calculated from active agent release; for Φu, uncaging quantum yield / Φdeg, degradation quantum yield: green light irradiation; for Φdeg, degradation quantum yield: calculated from the disappearance of the target conjugate. As to the method: The relative photochemical quantum yields of the uncaging reactions together with the degradation quantum yields were determined from the results of the quantitative HPLC-UV experiments. In all cases, green light irradiation was used since all target conjugates absorbed in this range as well as the reference BODIPY. The photochemical quantum yields were determined using the following equation:
[formula] • where • Φu is the photochemical quantum yield of the sample • Φu,ref is the photochemical quantum yield of the reference • k is the obtained reaction rate constant of the photoreaction of the sample • kref is the obtained reaction rate constant of the photoreaction of the reference • c is the concentration of the sample • cref is the concentration of the reference • V is the volume of the sample • Vref is the volume of the reference • a is the absorption correction factor of the sample • aref is the absorption correction factor of the reference
The absorption correction factors (a) were determined from the molar absorption coefficients and the green LED emission data obtained by the fluorimeter. […] In other words, the transmittance at each wavelength together with the emission data of the light source can be used to calculate the percentage of absorbed photons according to the following equation:
[formula] • where • T(λ) is the transmittance at each wavelength (determined from the molar absorption coefficients) • F(λ) is the LED emission at each wavelength • λmin, λmax is the LED emission range.
The rate constants of the photoreactions were determined by considering the reactions monoexponential with an initial linear phase (up to 10-20% degradation). First, the concentration vs. HPLC-UV peak were determined for each cargo moieties. […] The rate constants were determined for both the reference (with known Φu) and the sample. For reference, a commonly known BODIPY derivative was used with a similar phenylacetic acid-derived cargo unit (substrate 7 from REF^40), Φu=0.15%:
The calculated photochemical quantum yields together with uncaging cross-sections or quantum efficiencies (product of the molar absorption coefficient at a given wavelength, shown in parentheses and the photochemical quantum yield) are shown in Table 2. In the table, Φu is the photochemical quantum yield of the release; Φdeg is the photochemical quantum yield of degradation; ε×Φu is the uncaging cross-section or quantum efficiency of the release at a given wavelength in parentheses.

The subject of a further data set is SK-OV-3 cells. The experiment in a line: Cytotoxicity determination, MTT assay, with light irradiation and in the dark. It is filed as cell-based, human. To be noted: for cell viability: DARK. Here is the method: A viability test was carried out to assess the toxicity of SN38 as well as the photoremovable protecting group-SN38 conjugates X1′-SN38 and X2′-SN38 after light irradiation and in the dark on SKOV3 cells. Cells were transferred into a 48-well plate (Thermo Fisher Scientific, 130187) (4,500 cells/well) and incubated for 20-24 h at 37° C. in a 5% CO2 atmosphere in McCoy's 5A (Modified) Medium, HEPES (Gibco 22330021) supplemented with 10% FBS (Gibco 10500-064), 1% penicillin-streptomycin (Gibco 15140-122). Cells were treated with compounds in the concentration range of 10^−11-10^−4 M for 90 min followed by light irradiation or kept in the dark at 37° C. in 5% CO2 atmosphere. After treatment and irradiation, cells were kept at 37° C. in 5% CO2 atmosphere for 72 hours. After the incubation period, supernatants were replaced with 0.5 mg/ml MTT (3-(4,5-dimethylthiazol-2-yl)-2,5-diphenyltetrazolium bromide; Sigma M5655-1G) solution (in complete DMEM: Dulbecco's modified Eagle's medium (DMEM, Gibco 41965-039), supplemented with 10% FBS (Gibco 10500-064), 1% penicillin-streptomycin (Gibco 15140-122), 1% Glutamax (Gibco 35050-061) and 1% sodium pyruvate (Life Technologies, Gibco 11360-070)) and incubated for 120 min at 37° C. in the dark. The insoluble formazan crystals were dissolved in 250 μl DMSO. Absorbance was detected at 540 nm using a Biotek Synergy 2 Cytation 3 imaging plate reader with Gen5 software version 3.08 (Biotek Winooski, VT, USA). Viability was expressed as percentage (n=3) of the readings of untreated control cells.
To determine phototoxic properties of compounds X1′-SN38 and X2′-SN38, standard MTT assays were performed on SK—OV-3 cells. To irradiate multiple specimens, an LED panel was custom-made for a 48-well plate consisting of 24 LEDs using green (4 W input power, λmax=549 nm half-width: 16 nm, output power: 72 mW), orange (4 W input power, λmax=605 nm half-width: 10 nm, output power: 140 mW) and red (4 W input power, λmax=658 nm half-width: 10 nm, for Q=CMe2 output power: 210 mW) LED irradiation. The board was specifically designed for the plates and offer water cooling to minimize heat shock to cells. Every second well can be irradiated with an individual LED. First, the cytotoxicity of the free active agent, SN38 was determined to be EC50 ^˜6 nM. Treatment of cells with the photoactivatable SN38 derivatives for 72 hours in the absence of light (without washing) produced moderate cytotoxic effects, sigificantly lowering the effectiveness of the active agent. This confirms that SN38 is a suitable candidate for light-activated prodrug applications. […] Reducing the irradiation time down to 10 s still produced significant phototoxicity in higher concentrations (see FIG. 8a for compound X2′-SN38) even assuming incomplete uncaging as a result of the substantial dark stability of compound X2′-SN38.
(Tetrazolium dyes change colour on reduction, which living cells bring about.)

The text below walks through data of patent US20260055118A1, “VISIBLE LIGHT SENSITIVE PHOTOREMOVABLE PROTECTING GROUPS, PREPARATION PROCESS THEREOF, PHOTOACTIVATABLE CONJUGATES COMPRISING THEM AND USES THEREOF” (HUN-REN TERMÉSZETTUDOMÁNYI KUTATÓKÖZPONT, priority 2022, published 2026).

`CC[N+]1=c2cc3c(cc2C(C)CC1(C)C)=C(C(C)OC(=O)Cc1ccccc1)c1cc2c4c(c1C3(C)C)CCCN4CCC2` (stereo not shown) [Compound 45]: in data set [1], the “λem (fluorescence emission maximum)” value is listed as 680 nm, the “λmax (absorption maximum)” value is 660 nm and the “ε (molar absorption coefficient)” value is 83 800 M^−1cm^−1. Also, in data set [2], the “ε × Φu, uncaging cross-section / quantum efficiency” value is 1390 M⁻¹ cm⁻¹; the “Φu, uncaging quantum yield” value is reported as 1.6%; the “Φdeg, degradation quantum yield” value is listed as 2.6%.
In the case of `CC(OC(=O)N1CCN(c2ccccc2)CC1)C1=C2C=CC(=[N+]3CCCC3)C=C2C(C)(C)c2cc(N3CCCC3)ccc21` (stereo not shown) [Compound 49, 1-(9,9-dimethyl-10-(1-((4-phenylpiperazine-1-carbonyl)oxy)ethyl)-7-(pyrrolidin-1-yl)anthracen-2 (9H)-ylidene)pyrrolidin-1-ium], in data set [1], the “λem (fluorescence emission maximum)” value amounted to 673 nm, the “λmax (absorption maximum)” value was 637 nm and the “ε (molar absorption coefficient)” value is 75 100 M^−1cm^−1. For the same molecule, in data set [2], the “ε × Φu, uncaging cross-section / quantum efficiency” value was determined as 690 M⁻¹ cm⁻¹; the “Φu, uncaging quantum yield” value is on record as 0.92%; the “Φdeg, degradation quantum yield” value was 1.7%.
Broadly, the cell viability is a per cent measure of how many cells are alive, often set against a control. For orientation: EC50 means the midpoint of the concentration-response curve. Consider `CCc1c2c(nc3ccc(O)cc13)-c1cc3c(c(=O)n1C2)COC(=O)[C@]3(O)CC` [SN38, 7-ethyl-10-hydroxycamptothecin, reference compound], for which the cell viability in the data set with SK-OV-3 cells (50 nM) worked out at 29%; in the data set on SK-OV-3 cells (100 nM) it was 27%; in the data set on SK-OV-3 cells (200 nM), 30%. Moreover, the EC50 in the data set on SK-OV-3 cells (dark, 72 h, MTT, read-out: Dark EC50 values) was 6.2 nM.
Take `CC(OCc1ccccc1)C1=C2C=CC(=[N+]3CCCC3)C=C2C(C)(C)c2cc(N3CCCC3)ccc21.[I-]` (stereo not shown) [Compound 35, 1-(10-(1-(benzyloxy)ethyl)-9,9-dimethyl-7-(pyrrolidin-1-yl)anthracen-2 (9H)-ylidene)pyrrolidin-1-ium iodide]: in data set [1], the “λem (fluorescence emission maximum)” value is 659 nm, the “λmax (absorption maximum)” value is 635 nm and the “ε (molar absorption coefficient)” value was 81 200 M^−1cm^−1.
